Measured values from article PMC9127117, “Towards discovery of inhibitors of the undecaprenyl-pyrophosphate phosphatase BacA by virtual high-throughput screening” (Computational and Structural Biotechnology Journal, 2022).
Entries after “also recorded” stand apart in the source; their conditions may differ.

Tests used:
BWΔtolC strain = assay: Growth inhibition in 2YT liquid medium (off-target activity); assay type: cell-based, E. coli; details: for growth inhibition: TolC-depleted BWΔtolC; for Off-target activity: antibacterial activity against BWΔtolC
Description: (§1) Bacteria were grown in 2YT broth supplemented, when required, with ampicillin or kanamycin at concentrations of 100 and 50 µg/ml, respectively. The BWΔtolC strain was obtained from the Keio collection. The BWΔbacAΔtolC and BWbacA-singleΔtolC were generated by P1 transduction of the ΔtolC::Kan^R cassette from BWΔtolC strain to BWΔbacA and DMEG9 recipient strains, respectively. The strains S. aureus RN4220 and S. pneumoniae R6 were used to evaluate the antibacterial activity of certain compounds. S. aureus was grown on BHI (Brain Heart Infusion) broth and S. pneumoniae was grown on Colombia broth supplemented with 5% horse blood.
(§2) For compounds displaying inhibitory activity on BacA catalysis, their antibacterial activity was tested on different E. coli strains by monitoring bacterial growth in the presence of compounds (125, 250 and 500 µM). One colony was cultured in 10 ml of 2YT liquid medium and incubated at 37℃ for 6 h. The absorbance of the culture at 600 nm (A600) was measured to prepare a bacterial suspension in 2YT liquid medium at 15.10^6 CFU/ml (A600 = 1 corresponds to 3.10^8 CFU/ml). The bacterial suspension (200-µl) was then grown on 96-well plates in the presence or not of compounds (5-µl), which was added from a stock solution prepared in DMSO. Negative controls were then performed by growing the cells without inhibitors in 2YT medium and in 2YT medium supplemented with 2.5% of DMSO. The plates were incubated at 37℃ overnight with A600 measurements every 10 min using a Tecan F200 PRO microplate reader (iControl software).

[1] = system: BWbacA-singleΔtolC strain; assay: Growth inhibition / MIC in 2YT liquid medium; assay type: cell-based, E. coli; details: for class of antibacterial activity (Figure S2): BWΔtolC and BWbacA-singleΔtolC strains, 250 and 500 µM; for MIC: BWbacA-singleΔtolC strain; for growth inhibition: TolC/PAP2-depleted BWbacA-singleΔtolC, 500 µM compound
Description: as §1, §2

BacA = BacA (Escherichia coli, UniProt P60932); details: for IC50 / BacA RA (%): 50 µM C55-PP, 5 nM BacA; for IC50: average of at least three experiments; for BacA RA (%): residual activity in the presence of 100 µM compound, 10 min 37 °C
Chain of BacA (P60932 whole entry): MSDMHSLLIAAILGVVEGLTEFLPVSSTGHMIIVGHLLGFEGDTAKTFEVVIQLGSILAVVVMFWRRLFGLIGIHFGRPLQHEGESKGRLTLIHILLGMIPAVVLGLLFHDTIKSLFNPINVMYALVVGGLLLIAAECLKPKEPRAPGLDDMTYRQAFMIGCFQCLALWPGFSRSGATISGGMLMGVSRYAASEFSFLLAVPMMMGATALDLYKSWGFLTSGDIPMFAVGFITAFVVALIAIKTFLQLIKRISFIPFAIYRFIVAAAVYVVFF
Description: C43(DE3) cells carrying pTrcBac30 plasmid were used for the expression of N-terminally His6-tagged BacA (His6-BacA) protein from E. coli. Cells were grown in 2YT-ampicillin at 37 °C and when the OD600 reached 0.9, the temperature of the culture was decreased to 22 °C and protein expression was induced by addition of 1 mM IPTG. Incubation was continued overnight at 22 °C and bacteria were harvested in the cold and washed in a buffer containing 20 mM Tris-HCl, pH 7.4, 0.4 M NaCl, 10% glycerol and 10 mM β-mercaptoethanol (buffer A). The cells were disrupted by three successive passages through a French press and the suspension was centrifuged at 200,000× g, 4 °C for 45 min. The pellet of membranes was washed with buffer A. The membranes were resuspended in buffer A supplemented by 2% DDM detergent. This mixture was incubated for 2 h at 4 °C under agitation before being centrifuged as described above. The supernatant containing solubilised membrane proteins was used for the purification of His6-BacA on Ni^2+-NTA-agarose. The supernatant was incubated overnight at 4 °C under agitation with 2 ml of Ni^2+-NTA-agarose polymer pre-equilibrated with buffer A supplemented with 10 mM imidazole and 0.2% DDM. The mixture was then transferred into a Poly-prep chromatography column (Biorad) and the polymer was washed with 50 ml of buffer A containing 0.2% DDM and successively 10 and 30 mM imidazole. The elution of BacA was then performed with buffer A containing 0.2% DDM and 400 mM imidazole. Fractions containing the BacA protein were subjected to an additional gel-filtration purification step on Superdex 200 (HiLoadTM 16/600 SuperdexTM 200) equilibrated in 0.1% DDM-containing buffer A. 1-ml fractions were collected and analysed by SDS-PAGE. Pure fractions were pooled and concentrated to 1 mg/ml (50000 MWCO concentrator, Vivaspin™ 20). […] PgpB was purified as previously described.
The C55-PP phosphatase activity of BacA was assessed by measuring the percentage of transformation of [^14C]C55-PP into [^14C]C55-P upon incubation with BacA by TLC analysis. The butanol from the [^14C]C55-PP solution was dried under vacuum so as to evaporate the organic solvent and to recover C55-PP as a lipidic film. […] The compounds (1 µL) were added to the reaction mixture at 100 µM final concentration (at the first instance) from a 2 mM stock solution prepared in DMSO. A blank experiment without compound, but with 1 µL DMSO, was performed in order to determine the 100 % of BacA activity to which all other experiments were compared. BacA (2 µL) was then added at a final concentration of 5 nM from a dilution solution prepared in the reaction buffer. The concentration of enzyme was fixed so that the consumption of substrate at the end of the incubation time in the control was less than 30%. The reaction mixture was incubated for 10 min at 37 °C and the catalysis was stopped by freezing in liquid nitrogen. The radiolabelled substrate (C55-PP) and product (C55-P) were separated by TLC on pre-coated plates of silica gel 60 (Merck) using propanol/ammonium hydroxide/water (6:3:1, v/v/v) as a mobile phase. The radioactive spots were located and quantified with a radioactivity scanner. […] Dose-response curves were plotted as BacA residual activity (RA) versus the logarithms of inhibitor concentration. […] Reported values are the average of at least three experiments. The C55-PP phosphatase activity of PgpB was measured as described for BacA.
The activity of BacA was then investigated by monitoring the initial velocity of [^14C]C55-PP dephosphorylation, as described in Material and methods section. […] The compounds were prepared as 2 mM DMSO stock solutions, resulting in a 5 % final concentration of DMSO in the reaction mixture.

PgpB = target: T1, PgpB (Escherichia coli, UniProt P0A924); assay: C55-PP phosphatase assay of PgpB; assay type: biochemical, E. coli; details: 100 µM compound; data not shown
T1 construct: made in house
T1 sequence (P0A924 whole entry): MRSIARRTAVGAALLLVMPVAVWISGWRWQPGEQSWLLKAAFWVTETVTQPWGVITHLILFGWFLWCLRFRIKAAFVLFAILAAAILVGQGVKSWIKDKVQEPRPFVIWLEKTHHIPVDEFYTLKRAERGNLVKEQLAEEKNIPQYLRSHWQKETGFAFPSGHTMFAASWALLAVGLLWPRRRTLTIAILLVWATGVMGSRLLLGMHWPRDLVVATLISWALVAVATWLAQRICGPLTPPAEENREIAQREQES
Description: C43(DE3) cells carrying pTrcBac30 plasmid were used for the expression of N-terminally His6-tagged BacA (His6-BacA) protein from E. coli. Cells were grown in 2YT-ampicillin at 37 °C and when the OD600 reached 0.9, the temperature of the culture was decreased to 22 °C and protein expression was induced by addition of 1 mM IPTG. Incubation was continued overnight at 22 °C and bacteria were harvested in the cold and washed in a buffer containing 20 mM Tris-HCl, pH 7.4, 0.4 M NaCl, 10% glycerol and 10 mM β-mercaptoethanol (buffer A). The cells were disrupted by three successive passages through a French press and the suspension was centrifuged at 200,000× g, 4 °C for 45 min. The pellet of membranes was washed with buffer A. The membranes were resuspended in buffer A supplemented by 2% DDM detergent. […] Fractions containing the BacA protein were subjected to an additional gel-filtration purification step on Superdex 200 (HiLoadTM 16/600 SuperdexTM 200) equilibrated in 0.1% DDM-containing buffer A. 1-ml fractions were collected and analysed by SDS-PAGE. […]
The C55-PP phosphatase activity of BacA was assessed by measuring the percentage of transformation of [^14C]C55-PP into [^14C]C55-P upon incubation with BacA by TLC analysis. […] The radioactive spots were located and quantified with a radioactivity scanner. […] The C55-PP phosphatase activity of PgpB was measured as described for BacA.

S. pneumoniae R6 = assay: Double-disc diffusion test with bacitracin; assay type: cell-based
Description: To evaluate the antibacterial activity of the compounds per se or in combination with bacitracin, against S. aureus RN4220 and S. pneumoniae R6 strains, disc diffusion method was used according to the CLSI guidelines. Bacterial suspensions equivalent to 10^8 CFU/ml were prepared in 5 ml BHI broth. A BHI-agar plate (for S. aureus) or Colombia-agar plate supplemented with 5% Horse Blood (for S. pneumoniae) were then flooded with a bacterial suspension for 1 min to allow the bacteria to sediment before removing the excess of medium. The commercial discs loaded with 130 µg of bacitracin (Biorad) was positioned on top of the bacterial lawn at distances of 10 mm (center to center) from another sterile and blank disc, which was then loaded with 7 µL of a compound solution (50 µg). The plates were incubated at 37 °C for 24 h and the diameter of the growth inhibition zone was measured and a photo of the plates was acquired using a ChemiDoc™ MP System.
Figure S3. Test of antibacterial activity of BacA inhibitors against S. aureus RN4220 (A) and S. pneumonia R6 (B) strains. Bacitracin (130 µg)- and compound (50 µg)-loaded discs were positioned at 10 mm of distance on top of a bacterial lawn. The plates were incubated overnight at 37 °C. These images are representative of three independent tests. […]

[2] = system: BWbacA-singleΔtolC strain overexpressing an ectopic copy of the bacA gene on a plasmid; assay: Growth inhibition upon bacA overexpression; assay type: cell-based, E. coli; details: bacA overexpressed in trans; 500 µM compound
Description: as §2
(§3) To further assess the specificity of compounds 3 and 5 with respect to BacA, they were tested against the strain depleted of both TolC and PAP2 but overexpressing an ectopic copy of the bacA gene on a plasmid.

[3] = system: BWbacA-singleΔtolC strain carrying the empty vector (pTRCH30); assay: Growth inhibition, control strain carrying the empty vector; assay type: cell-based, E. coli; details: 500 µM compound
Description: as §2, §3

BWΔbacAΔtolC strain = assay: Growth inhibition in 2YT liquid medium; assay type: cell-based, E. coli; details: BacA and TolC depleted; 500 µM compound
Description: as §1
For compounds displaying inhibitory activity on BacA catalysis, their antibacterial activity was tested on different E. coli strains by monitoring bacterial growth in the presence of compounds (125, 250 and 500 µM). One colony was cultured in 10 ml of 2YT liquid medium and incubated at 37℃ for 6 h. The absorbance of the culture at 600 nm (A600) was measured to prepare a bacterial suspension in 2YT liquid medium at 15.10^6 CFU/ml (A600 = 1 corresponds to 3.10^8 CFU/ml). […] The plates were incubated at 37℃ overnight with A600 measurements every 10 min using a Tecan F200 PRO microplate reader (iControl software). […]

[4] = system: DMEG9 strain, alias BWbacA-single; assay: Growth inhibition in 2YT liquid medium; assay type: cell-based, E. coli; details: PAP2-depleted DMEG9; 500 µM compound
Description: as §2
(§4) Two compounds, 3 and 5, were assessed for antibacterial activity using the broth microdilution method against the E. coli BW25113 wild type strain. […] Considering the plurality of C55-PP phosphatases in E. coli, the inhibition of BacA may not induce growth inhibition as long as the PAP2 enzymes (PgpB, YbjG, and LpxT) are functional. Consequently, compounds 3 and 5 were tested against a BW25113 variant in which the PAP2 enzymes were depleted (DMEG9 strain, alias BWbacA-single). […]

[5] = system: E. coli BW25113 wild type strain; assay: Growth inhibition in 2YT liquid medium; assay type: cell-based; details: 500 µM compound
Description: as §2, §4

Compound | growth inhibition (BWΔtolC strain; 500 µM compound) | Off-target activity (BWΔtolC strain) | class of antibacterial activity (Figure S2) [1] | MIC [1] [µg/mL] | MIC ([1]; 125, 250 and 500 µM tested) [µM] | growth inhibition [1] | IC50 (BacA) [µM] | BacA RA (%) (BacA) | other results
O=C(O)c1csc(S(=O)(=O)Nc2ccc(SCc3cccnc3)cc2)c1 [Compound 1, 5-{p-[(3-pyridyl)methylthio]phenylaminosulfonyl}-3-thenoic acid] | no growth inhibition | No | without any antibacterial activity whatever the strain |  |  |  |  |  | MIC ([1]; Escherichia coli, 125, 250 and 500 µM tested): > 500 µM; MIC ([1]; Escherichia coli, class symbol ND): > 500 µM
Cc1ccc(NS(=O)(=O)c2cc(C(=O)O)cs2)cc1C [Compound 2] | no effect | No | strong specificity towards BacA | 155 | 500 | total growth inhibition | 132 ± 22 | 66± 17 | nature of the inhibition (compound versus substrate competition kinetics) (BacA; 25 to 300 µM substrate, 200 µM compound): non-competitive inhibitors
O=C(O)c1csc(S(=O)(=O)Nc2ccc(N3CCCC3)c(F)c2)c1 [Compound 4] | moderate inhibition | Yes | antibacterial activity on both strains | 92 | 250 | total growth inhibition |  |  | inhibition of PgpB (PgpB): not inhibited; growth inhibition (BWΔtolC strain; 250 µM compound): no effect; antibacterial activity per se (inhibition zone around compound-loaded disc) (S. pneumoniae R6; 50 µg compound disc): no inhibition zone; inhibition zone of bacitracin in proximity of the compound (S. pneumoniae R6; 130 µg bacitracin disc, 50 µg compound disc at 10 mm): 10 mm
O=C(O)c1csc(S(=O)(=O)Nc2ccc3[nH]c(=O)sc3c2)c1 [Compound 5] | did not lead to any growth inhibition; also recorded: no growth inhibition | No | without any antibacterial activity whatever the strain |  | > 500 | no growth inhibition | 338 ± 35 | 76 ± 13 | growth inhibition upon bacA overexpression [2]: did not display any antibacterial activity; growth inhibition [3]: did not display any antibacterial activity; growth inhibition (BacA-independent activity) (BWΔbacAΔtolC strain): did not display any antibacterial activity; growth inhibition [4]: no growth inhibition; growth inhibition [5]: No growth inhibition; MIC ([1]; class symbol ND): ND (no growth inhibition detected up to 500 µM compound)
O=C(O)c1csc(S(=O)(=O)Nc2ccc3ccccc3c2)c1 [Compound 6] | moderate inhibition | Yes | antibacterial activity on both strains | 83 | 250 | total growth inhibition | 151 ± 13 | 70 ± 18 | growth inhibition (BWΔtolC strain; 250 µM compound): no effect
CC(C)Oc1ccc(NS(=O)(=O)c2cc(C(=O)O)cs2)cc1 [Compound 7] | no effect | No | strong specificity towards BacA | 170 | 500 | total growth inhibition | 366 ± 73 | 80 ±10 | 
bacitracin [reference compound] |  |  |  |  |  |  |  |  | inhibition zone of bacitracin (S. pneumoniae R6; 130 µg bacitracin disc alone): 7.5 mm
